The record followed here is patent US20190048052A1, “ANTI-MICROBIAL PEPTIDES AND COATINGS” (Board of Regents of the University of Nebraska, priority 2016, published 2019).

Residues, ends and D or L forms follow the SMILES beside them.

In series [1] the test system is S. aureus USA300. Kind of series: Preformed biofilm disruption (XTT). To be noted: 25 μM, 24 hour preformed biofilms. Format: cell-based, Staphylococcus aureus. The protocol:
(§1) Three types of experiments were conducted to evaluate the anti-biofilm activity of these peptides against S. aureus USA300, which was grown in tryptic soy broth (TSB) media in flat bottom, 96-well, polystyrene microtiter plates (Mishra et al. (2015) RSC Advances 5:59758-59769; Dean et al. (2011) BMC Microbiol., 11:114).
The third experiment evaluates the ability of the peptide to disrupt the biofilms of S. aureus USA300 formed in 24 hours. S. aureus USA300 (10^5 CFU/mL) in fresh TSB media was made from an exponentially growing culture. 200 μL of this bacterial culture was added to each well of the microtiter plates. The plates are then incubated at 37° C. for 24 hours to allow biofilm formation. Media was then carefully removed followed by washing with sterile 1×PBS to remove any unattached bacteria. Solution containing 20 μL of 10× peptide solution and 180 μL of fresh TSB were added. The plates were again incubated at 37° C. for another 24 hours. The extent of peptide disruption of biofilms was quantified using the same XTT method described above.
A general note: Tetrazolium dyes change colour on reduction, which living cells bring about.

Series [2] has as its system S. aureus USA300. The series can be described thus: Propidium iodide membrane permeation. Format: cell-based, Staphylococcus aureus. The protocol: Fluorescence spectroscopy was also used to follow bacterial killing. In brief, a serially diluted 10× peptide (10 μL) was made in 96-well coming COSTAR microtiter plates. Propidium iodide (2 μL) was added at 50 μM to each well which was finally incubated with S. aureus USA300 bacteria (88 μL at a final OD600 ˜0.1) with continuous shaking at 100 rpm, 37° C. in a FLUOstar® Omega (BMG LABTECH Inc, NC) microplate reader. The plates were read every 5 minutes for a total duration of 2 hours with excitation and emission wavelengths at 584 nm and 620 nm respectively. Plots were made using averaged readings from duplicated experiments after subtraction of the media control.

The subject of series [3] is S. aureus USA300. Kind of series: Inhibition of biofilm growth (XTT). Format: cell-based, Staphylococcus aureus. Also noted: unit of the concentration uncertain. The protocol: as §1
The second experiment evaluates the ability of the peptide to inhibit biofilm formation of S. aureus USA300 in 24 hours. In brief, S. aureus USA300 (10^5 CFU/mL) was made in fresh TSB media from exponentially growing bacteria. 180 μL of this bacterial culture was added to each well of the microtiter plates containing 20 μL of 10× peptide solution.

The next series relates to E. coli ATCC 25922. Format: cell-based, Escherichia coli. To be noted: ATCC 25922, 20 h. How it is done: (§2) The antimicrobial activity of peptides was evaluated using a standard broth microdilution protocol. In brief, exponential phase bacteria at 10^6 CFU were incubated with serially diluted peptides overnight for ˜20 hours at 37° C. The plates were read on a ChroMate® 4300 Microplate Reader at 630 nm (GMI, Ramsey, Minn.).

Series [4] relates to S. aureus USA300. The series can be described thus: Propidium iodide membrane permeation (Example 3). To be noted: 3.1 μM. Format: cell-based, Staphylococcus aureus. How it is done: FIGS. 15A and 15B show the growth inhibition (FIG. 15A) and propidium iodide-based membrane permeation (FIG. 15B) of S. aureus USA300 in TSB media by 3.1 μM of TetraF2W-RR and its single arginine variants (Table 8) at 37° C. with shaking at 100 rpm.
Fluorescence spectroscopy was also used to follow bacterial killing. In brief, μL of serially diluted 10× peptide concentrations were done in 96-well coming COSTAR microtiter plates. Propidium iodide at a fixed concentration of 20 μM per well was added to each well which was finally incubated with 88 μL of S. aureus USA300 (with a final OD600 0.1) with continuous shaking at 100 rpm with meander corner well shaking, 37° C. in a FLUOstar® Omega (BMG LABTECH Inc., NC) microplate reader. The plates were read every 5 minutes for a total duration of 2 hours with excitation and emission wavelengths at 584 nm and 620 nm, respectively.

Series [5] deals with S. aureus USA300. Format: cell-based, Staphylococcus aureus. To be noted: USA300, 20 h. How it is done:
as §2

The target in the next series is T1, proteinase K (Parengyodontium album, UniProt P06873).
T1 construct: purchased Sigma or Fisher
The series can be described thus: Peptide stability to proteases (SDS-PAGE). Format: in vitro ADME, fungal. To be noted: peptide:protease 40:1, 24 hours, 37° C. The protocol:
When degraded, no peptide band could be detected on a 5% stacking/18% resolving tricine gel after 2-4 hours incubation at 37° C. Briefly, a solution (100 μL) containing 250 μM peptide and 6.25 μM protease (Sigma or Fisher) in 10 mM PBS buffer (pH 8) was incubated at 37° C. (peptide/protease molar ratio, 40:1). Aliquots (10 μL) of the reaction solutions were taken at 0, 6, and 24 hours and immediately mixed with 10 μL of 2× SDS loading buffer followed by boiling for 5 minutes to stop the reaction. […] After electrophoresis, the gel was stained by Brilliant Blue R-250 (Fisher) and destained to view the peptide bands.

In series [6] the test system is S. aureus USA300. The series can be described thus: FITC entry into live bacteria, confocal microscopy. Format: cell-based, Staphylococcus aureus. To be noted: peptide and FITC 9 μM. How it is done:
The entrance of a fluorescent dye into live bacterial cells was also followed by confocal microscopy (Mishra et al. (2015) RSC Advances 5:59758-59769). In brief, S. aureus USA300 was grown to the exponential phase from the overnight culture. The cells were then washed twice with fresh 1×PBS (pH 7.2) and the final cell density was adjusted to 1×10^8 CFU/mL. 1500 μL of the culture was added to the chambers of cuvettes (borosilicate cover glass systems; Nunc Cat. No. 155380) with equimolar concentrations of TetraF2W-RK and fluorescein isothiocyanate FITC (9 μM). The samples were examined with a confocal laser scanning microscope (Zeiss 710) with live time series of picture taken every 5 seconds for 5 minutes and the data were processed using Zen 2010 software.

T1 sequence (P06873 106-384): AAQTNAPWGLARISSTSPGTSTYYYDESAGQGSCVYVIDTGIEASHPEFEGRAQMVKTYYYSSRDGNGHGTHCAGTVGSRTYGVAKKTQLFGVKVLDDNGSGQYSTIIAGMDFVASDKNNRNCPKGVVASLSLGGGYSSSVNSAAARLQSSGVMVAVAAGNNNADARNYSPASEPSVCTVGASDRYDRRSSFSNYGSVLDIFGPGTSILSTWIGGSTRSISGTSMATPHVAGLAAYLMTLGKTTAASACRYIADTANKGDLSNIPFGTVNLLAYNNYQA

Regarding `CC[C@H](C)[C@H](NC(=O)[C@H](CCCNC(=N)N)NC(=O)[C@H](CCCNC(=N)N)NC(=O)[C@H](CC(C)C)NC(=O)[C@H](Cc1c[nH]c2ccccc12)NC(=O)[C@H](Cc1c[nH]c2ccccc12)NC(=O)[C@@H](N)Cc1c[nH]c2ccccc12)C(=O)N[C@@H](Cc1c[nH]c2ccccc12)C(N)=O` [TetraF2W-RR, WWWLRRIW] (H-WWWLRRIW-NH2; N-terminus assumed), the “disruption of preformed biofilms” value in the series on S. aureus USA300 [1] is listed as roughly 77%. In addition, the “propidium iodide fluorescence change after treatment” value in the series on S. aureus USA300 [2] was “most effective in damaging the membranes”. For the same compound, the “inhibition of biofilm growth” value in the series with S. aureus USA300 [3] (6.25 (unit uncertain) as printed) was “actively inhibited biofilm growth”. The “inhibition of biofilm formation” value in the series with S. aureus USA300 [3] (25 (unit uncertain) as printed) is listed as “completely inhibited”. Besides, the “E. coli (MIC)” value in the series with E. coli ATCC 25922 stood at 6.2 µM. The “membrane permeation by propidium iodide” value in the series on S. aureus USA300 [4] is reported as “most potent”. For the same compound, in the series with S. aureus USA300 [5], the “S. aureus (MIC)” value stood at 3.1 µM.

Regarding `CC[C@H](C)[C@H](NC(=O)[C@H](CCCCN)NC(=O)[C@H](CCCNC(=N)N)NC(=O)[C@H](CC(C)C)NC(=O)[C@H](Cc1c[nH]c2ccccc12)NC(=O)[C@H](Cc1c[nH]c2ccccc12)NC(=O)[C@@H](N)Cc1c[nH]c2ccccc12)C(=O)N[C@@H](Cc1c[nH]c2ccccc12)C(N)=O` [TetraF2W-RK, WWWLRKIW] (H-WWWLRKIW-NH2; N-terminus assumed), the “stability to fungal proteinase K” value at proteinase K is given as “completely degraded”. Further, in the series with S. aureus USA300 [6], the “time for FITC to enter the majority of cells” value is 30 s.
